Each compound was assayed against MCH receptor (Homo sapiens, UniProt Q99705) (assay: High throughput functional screening FLIPR/FDSS6000: inhibition of MCH-evoked intracellular Ca2+ changes). Conditions: class by percent of control at 10^-7 M or IC50.
Type: cell-based
Method in brief: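 Cells expressing a non-endogenous, constitutively active MCH receptor were loaded with 4 μM Fluo4-AM (with probenecid) for 1 hr at 37° C. Test compound was preincubated 3 min at 37° C before 50 nM MCH was added. The [Ca2+]i transient was read at Ex 488/Em 530 nm for 290 s.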
In the case of `CN(C)c1nc(N[C@H]2CC[C@@H](CNC(=O)Nc3cc([N+](=O)[O-])ccc3F)CC2)nc2ccccc12` [compound 498, N-[(cis-4-{[4-(dimethylamino)quinazolin-2-yl]amino}cyclohexyl)methyl]-N′-(2-fluoro-5-nitrophenyl)urea], the class is reported as 2 (Class 2: The value of percent of control at 10^−7 M was from 40% to 60% or the value of IC50 was from 50 nM to 200 nM.). In the case of `COc1cc(NC(=S)N[C@H]2CC[C@@H](Nc3nc(N(C)C)c4ccccc4n3)CC2)c(OC)cc1Cl` [compound 373, N-(4-chloro-2,5-dimethoxyphenyl)-N′-(cis-4-{[4-(dimethylamino)quinazolin-2-yl]amino}cyclohexyl)thiourea], the class is reported as 1 (Class 1: The value of percent of control at 10^−7 M was less than 40% or the value of IC50 was less than 50 nM.). With `CN(C)c1nc(N[C@H]2CC[C@@H](NC(=O)Nc3ccc(-c4ccccc4)s3)CC2)nc2ccccc12` [compound 348] the class was 3 (Class 3: The value of percent of control at 10^−7 M was more than 60% or the value of IC50 was more than 200 nM.). `Cc1cccc(CNC(=S)NC[C@H]2CC[C@@H](Nc3nc(N(C)C)c4ccccc4n3)CC2)c1` [compound 734] was tested, and the class was 3 (Class 3: The value of percent of control at 10^−7 M was more than 60% or the value of IC50 was more than 200 nM.). In the case of `CN(C)c1nc(N[C@H]2CC[C@@H](CNC(=O)Nc3ccccc3)CC2)nc2ccccc12` [compound 452, N-[(cis-4-{[4-(dimethylamino)quinazolin-2-yl]amino}cyclohexyl)methyl]-N′-phenylurea], the class is reported as 1 (Class 1: The value of percent of control at 10^−7 M was less than 40% or the value of IC50 was less than 50 nM.). With `COc1ccccc1CNC(=S)NC[C@H]1CC[C@@H](Nc2nc(N(C)C)c3ccccc3n2)CC1` [compound 788] the class was 3 (Class 3: The value of percent of control at 10^−7 M was more than 60% or the value of IC50 was more than 200 nM.). For `Cc1ccc(Cl)cc1NC(=O)NC[C@H]1CC[C@@H](Nc2nc(N(C)C)c3ccccc3n2)CC1` [compound 565], the class was 2 (Class 2: The value of percent of control at 10^−7 M was from 40% to 60% or the value of IC50 was from 50 nM to 200 nM.). With `CN(C)c1nc(N[C@H]2CC[C@@H](CNC(=O)Nc3cccc(C(F)(F)F)c3)CC2)nc2ccccc12` [compound 456] the class was 3 (Class 3: The value of percent of control at 10^−7 M was more than 60% or the value of IC50 was more than 200 nM.). With `CN(C)c1ccc(NC(=O)NC[C@H]2CC[C@@H](Nc3nc(N(C)C)c4ccccc4n3)CC2)cc1` [compound 772] the class was 3 (Class 3: The value of percent of control at 10^−7 M was more than 60% or the value of IC50 was more than 200 nM.). For `CN(C)c1nc(N[C@H]2CC[C@@H](NC(=O)Nc3ccc4c(c3)OCCO4)CC2)nc2ccccc12` [compound 338, N-(2,3-dihydro-1,4-benzodioxin-6-yl)-N′-(cis-4-{[4-(dimethylamino)quinazolin-2-yl]amino}cyclohexyl)urea], the class was 1 (Class 1: The value of percent of control at 10^−7 M was less than 40% or the value of IC50 was less than 50 nM.). In the case of `Cc1ccc(CNC(=S)NC[C@H]2CC[C@@H](Nc3nc(N(C)C)c4ccccc4n3)CC2)cc1` [compound 704], the class is reported as 3 (Class 3: The value of percent of control at 10^−7 M was more than 60% or the value of IC50 was more than 200 nM.). In the case of `COc1ccc(NC(=S)N[C@H]2CC[C@@H](Nc3nc(N(C)C)c4ccccc4n3)CC2)cc1OC` [compound 204], the class is reported as 1 (Class 1: The value of percent of control at 10^−7 M was less than 40% or the value of IC50 was less than 50 nM.). For `COc1ccc(NC(=O)N[C@H]2CC[C@@H](Nc3nc(N(C)C)c4ccccc4n3)CC2)cc1OC1CCCC1` [compound 342, N-[3-(cyclopentyloxy)-4-methoxyphenyl]-N′-(cis-4-{[4-(dimethylamino)quinazolin-2-yl]amino}cyclohexyl)urea], the class was 1 (Class 1: The value of percent of control at 10^−7 M was less than 40% or the value of IC50 was less than 50 nM.). In the case of `CN(C)c1nc(N[C@H]2CC[C@@H](CNC(=O)Nc3ccccc3[N+](=O)[O-])CC2)nc2ccccc12` [compound 512, N-[(cis-4-{[4-(dimethylamino)quinazolin-2-yl]amino}cyclohexyl)methyl]-N′-(2-nitrophenyl)urea], the class is reported as 2 (Class 2: The value of percent of control at 10^−7 M was from 40% to 60% or the value of IC50 was from 50 nM to 200 nM.). In the case of `Cc1onc(-c2ccccc2)c1NC(=S)N[C@H]1CC[C@@H](Nc2nc(N(C)C)c3ccccc3n2)CC1` [compound 402, N-(cis-4-{[4-(dimethylamino)quinazolin-2-yl]amino}cyclohexyl)-N′-(5-methyl-3-phenylisoxazol-4-yl)thiourea], the class is reported as 1 (Class 1: The value of percent of control at 10^−7 M was less than 40% or the value of IC50 was less than 50 nM.). With `CC(C)c1cccc(C(C)C)c1NC(=S)N[C@H]1CC[C@@H](Nc2nc(N(C)C)c3ccccc3n2)CC1` [compound 251] the class was 2 (Class 2: The value of percent of control at 10^−7 M was from 40% to 60% or the value of IC50 was from 50 nM to 200 nM.). `CN(C)c1nc(N[C@H]2CC[C@@H](NC(=S)Nc3ccc(Cl)c(C(F)(F)F)c3)CC2)nc2ccccc12` [compound 235] was tested, and the class was 3 (Class 3: The value of percent of control at 10^−7 M was more than 60% or the value of IC50 was more than 200 nM.). With `CN(C)c1nc(N[C@H]2CC[C@@H](CNC(=S)Nc3cccc(C#N)c3)CC2)nc2ccccc12` [compound 649, N-(3-ciyanophenyl)-N′-[(cis-4-{[4-(dimethylamino)quinazolin-2-yl]amino}cyclohexyl)methyl]thiourea] the class was 3 (Class 3: The value of percent of control at 10^−7 M was more than 60% or the value of IC50 was more than 200 nM.).

Same assay, conditions: class by percent of control at 10^-7 M or by IC50; read-out: class
In the case of `CN(C)c1nc(N[C@H]2CC[C@@H](NC(=O)Nc3ccc(C#N)cc3)CC2)nc2ccccc12` [compound 149, N-(4-cyanophenyl)-N′-(cis-4-{[4-(dimethylamino)quinazolin-2-yl]amino}cyclohexyl)urea], the IC50 is reported as < 50 nM. `CN(C)c1nc(N[C@H]2CC[C@@H](NC(=O)Nc3ccccc3-c3ccccc3)CC2)nc2ccccc12` [compound 11, N-biphenyl-2-yl-N′-(cis-4-{[4-(dimethylamino)quinazolin-2-yl]amino}cyclohexyl)urea] was tested, and the IC50 was < 50 nM. With `CCCCc1ccc(NC(=S)NC[C@H]2CC[C@@H](Nc3nc(N(C)C)c4ccccc4n3)CC2)c(C)c1` [compound 805] the IC50 was > 200 nM. For `CN(C)c1nc(N[C@H]2CC[C@@H](NC(=O)Nc3c(Br)cc(Br)cc3Br)CC2)nc2ccccc12` [compound 75, N-(cis-4-{[4-(dimethylamino)quinazolin-2-yl]amino}cyclohexyl)-N′-(2,4,6-tribromophenyl)urea], the IC50 was < 50 nM. `Cc1c(NC(=O)N[C@H]2CC[C@@H](Nc3nc(N(C)C)c4ccccc4n3)CC2)cccc1[N+](=O)[O-]` [compound 107, N-(cis-4-{[4-(dimethylamino)quinazolin-2-yl]amino}cyclohexyl)-N′-(2-methyl-3-nitrophenyl)urea] was tested, and the IC50 was < 50 nM. In the case of `CC(NC(=O)NC1CCC(Nc2nc(N(C)C)c3ccccc3n2)CC1)c1ccccc1` (stereo not shown) [compound 66, 1-[4-(4-Dimethylamino-quinazolin-2-ylamino)-cyclohexyl]-3-(1-phenyl-ethyl)-urea], the IC50 is reported as < 50 nM. With `CN(C)c1nc(N[C@H]2CC[C@@H](NC(=S)NC(C)(C)CC(C)(C)C)CC2)nc2ccccc12` [compound 190] the IC50 was > 200 nM.

Same assay, conditions: class by percent of control at 10^−7 M or by IC50; read-out: class
With `CN(C)c1nc(N[C@H]2CC[C@@H](C(=O)NCc3ccc(Cl)c(Cl)c3)CC2)nc2ccccc12` [Example 1156, cis-N-(3,4-dichlorobenzyl)-4-{[4-(dimethylamino)quinazolin-2-yl]amino}cyclohexanecarboxamide] the IC50 was < 50 nM. `CN(C)c1nc(N[C@H]2CC[C@@H](NC(=O)c3ccc(Oc4ccc(Cl)cc4)nc3)CC2)nc2ccccc12` [Example 1060, 6-(4-chlorophenoxy)-N-(cis-4-{[4-(dimethylamino)quinazolin-2-yl]amino}cyclohexyl)nicotinamide] was tested, and the IC50 was < 50 nM. In the case of “N-(cis-4-{[4-(dimethylamino)quinazolin-2-yl]amino}cyclohexyl)-6-(3-methylphenoxy)nicotinamide [Example 1055]”, the IC50 is reported as < 50 nM. `CN(C)c1nc(N[C@H]2CC[C@@H](NC(=O)c3cccc(NC(=O)C4CCCC4)c3)CC2)nc2ccccc12` [Example 1203, 3-[(cyclopentylcarbonyl)amino]-N-(cis-4-{[4-(dimethylamino)quinazolin-2-yl]amino}cyclohexyl)benzamide] was tested, and the IC50 was < 50 nM. For `Cc1cc(C)cc(CNC(=O)[C@H]2CC[C@@H](Nc3nc(N(C)C)c4ccccc4n3)CC2)c1` [Example 1142, cis-4-{[4-(dimethylamino)quinazolin-2-yl]amino}-N-(3,5-dimethylbenzyl)cyclohexanecarboxamide], the IC50 was < 50 nM. In the case of `CN(C)c1nc(N[C@H]2CC[C@@H](C(=O)NCc3c(F)cccc3Cl)CC2)nc2ccccc12` [Example 1179, cis-N-(2-chloro-6-fluorobenzyl)-4-{[4-(dimethylamino)quinazolin-2-yl]amino}cyclohexanecarboxamide], the IC50 is reported as < 50 nM. In the case of `CN(C)c1nc(N[C@H]2CC[C@@H](NC(=O)c3ccc(Oc4cc(F)cc(F)c4)nc3)CC2)nc2ccccc12` [Example 1063, 6-(3,5-difluorophenoxy)-N-(cis-4-{[4-(dimethylamino)quinazolin-2-yl]amino}cyclohexyl)nicotinamide], the IC50 is reported as > 200 nM. In the case of `CN(C)c1nc(N[C@H]2CC[C@@H](NC(=O)c3ccccc3)CC2)nc2cc(F)c(F)cc12` [Example 1205, N-(cis-4-{[4-(dimethylamino)-6,7-difluoroquinazolin-2-yl]amino}cyclohexyl)benzamide], the IC50 is reported as < 50 nM. `Cc1ccc(C(=O)N[C@H]2CC[C@@H](Nc3nc(N(C)C)c4cc(F)c(F)cc4n3)CC2)cc1` [Example 1206, N-(cis-4-{[4-(dimethylamino)-6,7-difluoroquinazolin-2-yl]amino}cyclohexyl)-4-methylbenzamide] was tested, and the IC50 was < 50 nM.

Source: patent US20070010671A1, “Novel quinazoline derivatives and methods of treatment related to the use thereof” (priority 2003, published 2007)
